Where “and” joins values, the source holds several entries; their conditions need not be identical. Identical values can stand only once. Calls of active or inactive are those of the source.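 The calls were made as follows: active = compounds cutting yeast growth whose half-maximal concentration is at most twice their top valid dose; inconclusive = flat growth loss of 30 to 70 percent, or poor fit; inactive = the rest.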 Bounds are passed on as bounds.

What is called AC50 is the concentration giving half of the maximal activity seen.

The test system of the first assay is Candida glabrata growth in glycerol, OD600, 48 h. As to the kind of experiment: C. glabrata growth inhibition on glycerol, dose response, glycerol medium, OD600, powder samples, set 2 (AID 623903).
Conditions: not given
With `CCOC(=O)N1C(=O)C2(CCCCC2)N(c2ccc(-c3ccccc3)cc2)C1=S`, the AC50 is 0.242 µM.

Regarding `CCOC(=O)N1C(=O)C2(CCCCC2)N(c2ccc(Cl)cc2)C1=S`, the half-maximal activity concentration (AC50) is below 0.0235 µM.

Take `CCOC(=O)N1C(=O)C2(CCCCC2)N(c2ccc(F)cc2)C1=S`: the AC50 is below 0.0235 µM.

For `CCOC(=O)N1C(=O)C2(CCC2)N(c2ccc(C)cc2)C1=S`, the AC50 was 2.51 µM.

Consider `CCCC(=O)N1C(=O)C2(CCCCC2)N(c2ccc(C)cc2)C1=S`, for which the AC50 is 0.102 µM.

Take `CCOC(=O)N1C(=O)C2(CCCCC2)N(c2cccc(C)c2)C1=S`: the concentration at half-maximal activity (AC50) was 0.0866 µM.

Consider `CCOC(=O)N1C(=O)C2(CCCCC2)N(c2ccccc2)C1=S`, for which the concentration at half-maximal activity (AC50) was 0.0289 µM.

As to `CCOC(=O)N1C(=O)C2(CCCCC2)N(c2ccccc2C)C1=S`, the AC50 is 0.541 µM.

As for `CCOC(=O)N1C(=O)C2(CCCCC2)N(c2ccc(OC)cc2)C1=S`, the AC50 is 0.255 µM.

`Cc1ccc(N2C(=S)N(C(=O)OCc3ccccc3)C(=O)C23CCCCC3)cc1`: the AC50 was 5.54 µM.

As to `Cc1ccc(N2C(=S)N(C(=O)OC(C)C)C(=O)C23CCCCC3)cc1`, the half-maximal activity concentration (AC50) is 0.638 µM.

On to `CCOC(=O)N1C(=O)C2(CCCCC2)N(c2ccc(C)cc2)C1=S`, for which the AC50 was 0.0564 µM and 0.0452 µM.

For `CCOC(=O)N1C(=O)C2(CCCCC2)N(c2ccc(C(F)(F)F)cc2)C1=S`, the AC50 is 0.0443 µM.

Consider `CCCCN1C(=O)N(c2ccc(C)cc2)C2(CCCCC2)C1=S`, for which the AC50 was > 12 µM (inactive).

Consider `CCOC(=O)N1C(=O)C2(CCCCC2)N(C(C)C)C1=S`, for which the AC50 is 2.75 µM.

With `CC1/C=C/C=C\C=C\C=C\C=C\C=C\C=C\C(O[C@H]2OC(C)C(O)C(N)C2O)CC2OC(O)(CC(O)CC(O)C(O)CCC(O)CC(O)CC(=O)OC(C)C(C)C1O)CC(O)C2C(=O)O` (stereo partly drawn), the AC50 was 0.205 µM.

Take `CCOC(=O)N1C(=O)C2(CCCCC2)N(c2ccc(C(C)(C)C)cc2)C1=S`: the AC50 was 1.98 µM.

In the case of `CCOC(=O)N1C(=O)C2(CCCCC2)N(c2ccc(CC)cc2)C1=S`, the AC50 is 0.133 µM.

With `CCOC(=O)N1C(=S)N(c2ccc(C)cc2)C2(CCCCC2)C1=NCc1ccccc1`, the AC50 is 3.75 µM.

Take `CCCc1ccc(N2C(=S)N(C(=O)OCC)C(=O)C23CCCCC3)cc1`: the AC50 was 0.629 µM.

As for `Cc1ccc(N2C(=S)NC(=O)C23CCOCC3)cc1`, the AC50 is > 12 µM (inactive).

`CCOC(=O)N1C(=O)C2(CCOCC2)N(c2ccc(C)cc2)C1=S`: the AC50 was 1.48 µM.

In the case of `CCOC(=O)N1C(=O)C2(CCCCC2)N(Cc2ccccc2)C1=S`, the AC50 is below 0.0235 µM.

As to `CCOC(=O)N1C(=O)C2(CCCCC2)N(c2ccc(C#N)cc2)C1=S`, the half-maximal activity concentration (AC50) is 0.0672 µM.

For the molecule `COC(=O)N1C(=O)C2(CCCCC2)N(c2ccc(C)cc2)C1=S`, the AC50 is 0.136 µM.

As for `CCOC(=O)N1C(=O)C2(CCCCC2)N(c2ccc(C(C)C)cc2)C1=S`, the AC50 was 0.829 µM.

For `CCCCN1C(=O)C2(CCCCC2)N(c2ccc(C)cc2)C1=S`, the AC50 is > 12 µM (inactive).

For the molecule `CCCOC(=O)N1C(=O)C2(CCCCC2)N(c2ccc(C)cc2)C1=S`, the AC50 was 0.0953 µM.

For `CCOC(=O)N1C(=O)C2(CCCC2)N(c2ccc(C)cc2)C1=S`, the AC50 was 0.315 µM.

System in the next assay: not listed separately
Described as above. As to conditions: Candida glabrata growth in glycerol, OD600, 48 h; at 6 µM (top of the series).
As for `CCOC(=O)N1C(=S)N(c2ccc(C)cc2)C(=O)C12CCCCC2`, the growth change, negative = inhibition was 14.3% (inactive).

`Cc1ccc(N2CC(=O)NC2=O)cc1`: the growth change, negative = inhibition is 28.9% (inactive).

Regarding `CCOC(=O)N1C(=O)C2(CCCCC2)NC1=S`, the growth change, negative = inhibition was -2.7% (inactive).

For the molecule `Cc1ccc(N2C(=S)NC(=O)C2(C)C)cc1`, the growth change, negative = inhibition was -2.42% (inactive).

In the case of `CC(C)N1C(=S)NC(=O)C12CCCCC2`, the growth change, negative = inhibition is 5.61% (inactive).

For `CCOC(=O)N1C(=S)NC(=O)C12CCCCC2`, the growth change, negative = inhibition was 11.1% (inactive).

In the case of `Cc1ccc(N2C(=O)NC(=O)C23CCCCC3)cc1`, the growth change, negative = inhibition is 44.5% (inactive).

On to `O=C1NC(=S)N(c2ccccc2)C12CCCCC2`, for which the growth change, negative = inhibition is 21.1% (inactive).

For `Cc1ccc(N2C(=S)N(C(=O)Oc3ccccc3)C(=O)C23CCCCC3)cc1`, the growth change, negative = inhibition is -4.17% (inactive).

Take `Cc1ccc(N2C(=O)N(C)C(=O)C23CCCCC3)cc1`: the growth change, negative = inhibition is 24.2% (inactive).

`O=C1NC(=S)N(Cc2ccccc2)C12CCCCC2`: the growth change, negative = inhibition was -0.552% (inactive).

As for `Cc1ccc(N2C(=O)C3(CCCCC3)NC2=S)cc1`, the growth change, negative = inhibition is 5.63% (inactive).

For `Cc1ccc(N2CC(=O)NC2=S)cc1`, the growth change, negative = inhibition is 3.32% (inactive).

`O=C1NC(=S)N(c2ccc(F)cc2)C12CCCCC2`: the growth change, negative = inhibition is -17.4% (inactive).

With `Cc1ccc(N2C(=S)NC(=O)C23CCCCC3)cc1`, the growth change, negative = inhibition was -3.05% (inactive).

Consider `O=C1NC(=S)NC12CCCCC2`, for which the growth change, negative = inhibition is 10.1% (inactive).

As for `Cc1ccc(N2C(=S)NC(=O)C23CCCC3)cc1`, the growth change, negative = inhibition is -31.4% (inactive).

For `Cc1ccc(N2C(=S)NC(=O)C23CCC3)cc1`, the growth change, negative = inhibition is 3.27% (inactive).

For `Cc1ccc(N2C(=S)N(S(C)(=O)=O)C(=O)C23CCCCC3)cc1`, the growth change, negative = inhibition is 1.2% (inactive).

On to `Cc1ccc(N2C(=O)C(=O)NC2=S)cc1`, for which the growth change, negative = inhibition was 19.6% (inactive).

In the case of `CCOC(=O)N1C(=O)C(C)(C)N(c2ccc(C)cc2)C1=S`, the growth change, negative = inhibition is -13.4% (inactive).

On to `CCCCN1C(=O)N(c2ccc(C)cc2)C2(CCCCC2)C1=O`, for which the growth change, negative = inhibition is -2.19% (inactive).

As for `Cc1ccc(N2C(=S)N(C)C(=O)C23CCCCC3)cc1`, the growth change, negative = inhibition was -20.3% (inactive).

As for `CCOC(=O)N1C(=O)N(c2ccc(C)cc2)C2(CCCCC2)C1=O`, the growth change, negative = inhibition is -38.8% (inactive).
